From patent publication US7951815B2, “Substituted 1,4,8-triazaspiro [4,5]decan-2-one compounds” (Gruenenthal GmbH, priority 2004, dated 2011) come the findings set out here.

SMILES strings stand for the structures. Where two headings read alike, the source gives them in different places.

The target of one test is T1, 5-HT transporter (Rattus norvegicus, UniProt P31652).
T1 construct: synaptosomes of rat brain areas are freshly isolated; from tissue; host or cells: rat brain synaptosomes (P2 fraction) from marrow and pons
The test can be described thus: Inhibition of 5-HT uptake in rat brain synaptosomes. In kind it is biochemical. The following applies: rat, 1 μM; for inhibition at 1 µM: read-out: Uptake 5-HT, % inhibition.

For test [1], the system named is batrachotoxin (BTX) binding site of the sodium channel. The test can be described thus: Affinity to the batrachotoxin (BTX) binding site of the sodium channel. The following applies: rat cerebrocortex synaptosomes, test concentration not given.

T1 sequence (P31652 whole entry): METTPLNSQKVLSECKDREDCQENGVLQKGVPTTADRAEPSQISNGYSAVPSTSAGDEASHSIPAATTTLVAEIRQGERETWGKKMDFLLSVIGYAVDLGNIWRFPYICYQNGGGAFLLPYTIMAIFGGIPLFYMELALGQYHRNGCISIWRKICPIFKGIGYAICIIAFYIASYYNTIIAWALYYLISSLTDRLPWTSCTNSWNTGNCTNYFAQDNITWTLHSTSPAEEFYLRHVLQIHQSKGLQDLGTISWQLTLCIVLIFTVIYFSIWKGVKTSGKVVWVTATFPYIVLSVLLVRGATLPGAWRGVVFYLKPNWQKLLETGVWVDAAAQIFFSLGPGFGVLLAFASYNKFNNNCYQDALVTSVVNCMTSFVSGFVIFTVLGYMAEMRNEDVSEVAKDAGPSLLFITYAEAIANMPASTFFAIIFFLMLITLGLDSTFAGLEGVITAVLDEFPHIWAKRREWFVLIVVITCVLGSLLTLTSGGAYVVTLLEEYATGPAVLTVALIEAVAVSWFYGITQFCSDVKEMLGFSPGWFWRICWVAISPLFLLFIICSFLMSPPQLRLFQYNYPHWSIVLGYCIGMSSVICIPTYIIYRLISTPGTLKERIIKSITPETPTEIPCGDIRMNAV

As usually defined, the inhibition is how much of the control response was suppressed. With `Cl.O=C(c1ccc2ccccc2c1)N1CCC2(CC1)N[C@@H](Cc1ccccc1)C(=O)N2Cc1ccccc1` [Example 59, 1,3-(S)-dibenzyl-8-(naphthalin-2-carbonyl)-1,4,8-triazaspiro[4,5]decan-2-one hydrochloride], the inhibition at 1 µM at 5-HT transporter (Table II) was 53%. In addition, the BTX inhibition in test [1] (Table II) was 49.

With `Cl.O=C(c1ccco1)N1CCC2(CC1)N[C@@H](Cc1ccccc1)C(=O)N2Cc1ccccc1` [Example 60, 1,3-(S)-dibenzyl-8-(furan-2-carbonyl)-1,4,8-triazaspiro[4,5]decan-2-one hydrochloride], the inhibition at 1 µM on 5-HT transporter (Table II) stood at 80%. Further, the BTX inhibition in test [1] (Table II) is 39.

With `Cl.O=C(c1ccc(F)cc1)N1CCC2(CC1)N[C@@H](Cc1ccccc1)C(=O)N2Cc1ccccc1` [Example 62, 1,3-(S)-dibenzyl-8-(4-fluorobenzoyl)-1,4,8-triazaspiro[4,5]decan-2-one hydrochloride], the inhibition at 1 µM on 5-HT transporter (Table II) stood at 87%. In test [1] (Table II), the BTX inhibition came out at 48.

Regarding `CC(C)CC1NC2(CCN(C(=O)c3ccc(-c4ccccc4)cc3)CC2)N(Cc2ccc(F)cc2)C1=O` (stereo not drawn) [Example 101, 8-(Biphenyl-4-carbonyl)-1-(4-fluorobenzyl)-3-isobutyl-1,4,8-triazaspiro[4,5]decan-2-one], on 5-HT transporter (Table III), the inhibition at 1 µM came out at 33%. In addition, in test [1] (Table III), the BTX inhibition came out at 78.

In the case of `O=C(c1ccc(Br)cc1)N1CCC2(CC1)NC(Cc1ccccc1)C(=O)N2Cc1ccccc1` (stereo not drawn) [Example 105, 1,3-Dibenzyl-8-(4-bromobenzoyl)-1,4,8-triazaspiro[4,5]decan-2-one], the inhibition at 1 µM on 5-HT transporter (Table III) amounted to 68%. Besides, the BTX inhibition in test [1] (Table III) amounted to 66.

`CCCCCC(=O)N1CCC2(CC1)NC(C(C)C)C(=O)N2CCCC` (stereo not drawn) [Example 129, 1-Butyl-8-hexanoyl-3-isopropyl-1,4,8-triazaspiro[4,5]decan-2-one]: at 5-HT transporter (Table III), the inhibition at 1 µM is 47%. The same compound gave a BTX inhibition in test [1] (Table III) of 30.

For the compound `CCSc1ncccc1C(=O)N1CCC2(CC1)NC(Cc1ccccc1)C(=O)N2Cc1ccccc1` (stereo not drawn) [Example 145, 1,3-Dibenzyl-8-(2-ethylsulfanylpyridin-3-carbonyl)-1,4,8-triazaspiro[4,5]decan-2-one], the inhibition at 1 µM on 5-HT transporter (Table III) came to 89%. Also, the BTX inhibition in test [1] (Table III) came to 64.

Take `Cc1onc(-c2c(F)cccc2Cl)c1C(=O)N1CCC2(CC1)NC(=O)C(C(C)C)N2` (stereo not drawn) [Example 149, 8-[3-(2-Chloro-6-fluorophenyl)-5-methylisoxazole-4-carbonyl]-3-isopropyl-1,4,8-triazaspiro[4,5]decan-2-one]: the inhibition at 1 µM at 5-HT transporter (Table III) was 33%. Besides, the BTX inhibition in test [1] (Table III) was 33.

In the case of `CCCCN1C(=O)C(CCSC)NC12CCN(C(=O)C1COc3ccc(Cl)cc3C1)CC2` (stereo not drawn) [Example 150, 1-Butyl-8-(6-Chloro-2H-chroman-3-carbonyl)-3-(2-methylsulfanylethyl)-1,4,8-triazaspiro[4,5]decan-2-one], the “Uptake 5-HT, rat, 1 μM, % inhibition” value on 5-HT transporter (Table III) came out at 72%. In addition, the BTX inhibition in test [1] (Table III) was 56.

For `Cc1nc(C(F)(F)F)ccc1C(=O)N1CCC2(CC1)NC(C(C)C)C(=O)N2CCOc1ccccc1` (stereo not drawn) [Example 167, 3-Isopropyl-8-(2-methyl-6-trifluoromethylpyridin-3-carbonyl)-1-(2-phenoxyethyl)-1,4,8-triazaspiro[4,5]decan-2-one], on 5-HT transporter (Table III), the inhibition at 1 µM amounted to 52%. The compound further returned a BTX inhibition in test [1] (Table III) of 38.

With `Cc1nn(-c2ccccc2)nc1C(=O)N1CCC2(CC1)NC(Cc1ccccc1)C(=O)N2C` (stereo not drawn) [Example 168, 3-Benzyl-1-methyl-8-(5-methyl-2-phenyl-2H-[1,2,3]triazole-4-carbonyl)-1,4,8-triazaspiro[4,5]decan-2-one], the inhibition at 1 µM at 5-HT transporter (Table III) was found to be 46%. Besides, in test [1] (Table III), the BTX inhibition stood at 44.

Regarding `O=C(c1sccc1Cl)N1CCC2(CC1)NC(Cc1ccccc1)C(=O)N2Cc1ccccc1` (stereo not drawn) [Example 172, 1,3-Dibenzyl-8-(3-chlorothiophene-2-carbonyl)-1,4,8-triazaspiro[4,5]decan-2-one], the inhibition at 1 µM at 5-HT transporter (Table III) is 76%. In test [1] (Table III), the BTX inhibition was 49.

For `CCCCN1C(=O)C(Cc2ccccc2)NC12CCN(C(=O)c1cc(F)ccc1C(F)(F)F)CC2` (stereo not drawn) [Example 175, 3-Benzyl-1-butyl-8-(5-fluoro-2-trifluoromethylbenzoyl)-1,4,8-triazaspiro[4,5]decan-2-one], the inhibition at 1 µM on 5-HT transporter (Table III) is 69%. The BTX inhibition in test [1] (Table III) is 38.

Take `COc1ccc(CC(=O)N2CCC3(CC2)NC(Cc2ccccc2)C(=O)N3C)cc1` (stereo not drawn) [Example 176, 3-Benzyl-8-[2-(4-methoxyphenyl)acetyl]-1-methyl-1,4,8-triazaspiro[4,5]decan-2-one]: the inhibition at 1 µM on 5-HT transporter (Table III) was found to be 37%. This compound also returned a BTX inhibition in test [1] (Table III) of 30.

In the case of `Cc1nnsc1C(=O)N1CCC2(CC1)NC(Cc1ccccc1)C(=O)N2Cc1ccccc1` (stereo not drawn) [Example 177, 1,3-Dibenzyl-8-(4-methyl[1,2,3]thiadiazole-5-carbonyl)-1,4,8-triazaspiro[4,5]decan-2-one], the inhibition at 1 µM on 5-HT transporter (Table III) came to 79%. The compound further registered a BTX inhibition in test [1] (Table III) of 30.

In the case of `CCCCN1C(=O)C(Cc2ccccc2)NC12CCN(C(=O)C1CCCCC1)CC2` (stereo not drawn) [Example 180, 3-Benzyl-1-butyl-8-cyclohexanecarbonyl-1,4,8-triazaspiro[4,5]decan-2-one], on 5-HT transporter (Table III), the inhibition at 1 µM was found to be 63%. In test [1] (Table III), this compound displayed a BTX inhibition of 42.

As to `CCCCN1C(=O)C(Cc2ccccc2)NC12CCN(C(=O)CCC1CCCC1)CC2` (stereo not drawn) [Example 188, 3-Benzyl-1-butyl-8-(3-cyclopentylpropionyl)-1,4,8-triazaspiro[4,5]decan-2-one], the inhibition at 1 µM on 5-HT transporter (Table III) was determined as 70%. The BTX inhibition in test [1] (Table III) was found to be 69.

As to `COc1ccc(OC)c(CC(=O)N2CCC3(CC2)NC(CCSC)C(=O)N3Cc2ccccc2F)c1` (stereo not drawn) [Example 195, 8-[2-(2,5-Dimethoxyphenyl)acetyl]-1-(2-fluorobenzyl)-3-(2-methylsulfanylethyl)-1,4,8-triazaspiro[4,5]decan-2-one], the inhibition at 1 µM at 5-HT transporter (Table III) stood at 50%. The compound also registered a BTX inhibition in test [1] (Table III) of 34.

With `CSCCC1NC2(CCN(C(=O)c3cccc(OC(F)(F)F)c3)CC2)N(Cc2cccc(C#N)c2)C1=O` (stereo not drawn) [Example 200, 3-[3-(2-Methylsulfanylethyl)-2-oxo-8-(3-trifluoromethoxybenzoyl)-1,4,8-triazaspiro[4,5]dec-1-ylmethyl]benzonitrile], the inhibition at 1 µM on 5-HT transporter (Table III) amounted to 45%. In test [1] (Table III), the BTX inhibition worked out at 44.

As for `CN1C(=O)C(Cc2ccccc2)NC12CCN(C(=O)C=Cc1ccccc1Cl)CC2` (stereo not drawn) [Example 203, 3-Benzyl-8-[3-(2-chlorophenyl)acryloyl]-1-methyl-1,4,8-triazaspiro[4,5]decan-2-one], the inhibition at 1 µM at 5-HT transporter (Table III) is 34%. The BTX inhibition in test [1] (Table III) worked out at 48.

Regarding `COC(=O)c1ccc(CN2C(=O)C(C(C)C)NC23CCN(C(=O)c2ccc(C(F)(F)F)c(F)c2)CC3)cc1` (stereo not drawn) [Example 204, Methyl 4-[8-(3-fluoro-4-trifluoromethylbenzoyl)-3-isopropyl-2-oxo-1,4,8-triazaspiro[4,5]dec-1-ylmethyl]benzoate], at 5-HT transporter (Table III), the inhibition at 1 µM worked out at 42%. For the same compound, the BTX inhibition in test [1] (Table III) is listed as 44.

Take `CCCCN1C(=O)C(Cc2ccccc2)NC12CCN(C(=O)c1ccc(I)cc1)CC2` (stereo not drawn) [Example 207, 3-Benzyl-1-butyl-8-(4-Iodobenzoyl)-1,4,8-triazaspiro[4,5]decan-2-one]: the inhibition at 1 µM on 5-HT transporter (Table III) came out at 76%. The compound further gave a BTX inhibition in test [1] (Table III) of 57.

Take `O=C(CCCOc1ccccc1)N1CCC2(CC1)NC(Cc1ccccc1)C(=O)N2Cc1ccccc1` (stereo not drawn) [Example 209, 1,3-Dibenzyl-8-(4-phenoxybutyryl)-1,4,8-triazaspiro[4,5]decan-2-one]: the inhibition at 1 µM at 5-HT transporter (Table III) stood at 69%. For the same compound, the BTX inhibition in test [1] (Table III) amounted to 67.

`CC(C)CC1NC2(CCN(C(=O)c3cc(C(C)(C)C)nn3C)CC2)N(Cc2cccc(C#N)c2)C1=O` (stereo not drawn) [Example 218, 3-[8-(5-tert-Butyl-2-methyl-2H-pyrazole-3-carbonyl)-3-isobutyl-2-oxo-1,4,8-triazaspiro[4,5]dec-1-ylmethyl]benzonitrile]: the inhibition at 1 µM on 5-HT transporter (Table III) amounted to 57%. In addition, in test [1] (Table III), the BTX inhibition amounted to 39.

Turning to `CSCCC1NC2(CCN(C(=O)CCC3CCCC3)CC2)N(Cc2ccccc2)C1=O` (stereo not drawn) [Example 221, 1-Benzyl-8-(3-cyclopentylpropionyl)-3-(2-methylsulfanylethyl)-1,4,8-triazaspiro[4,5]decan-2-one], at 5-HT transporter (Table III), the inhibition at 1 µM is 79%. The compound further had a BTX inhibition in test [1] (Table III) of 36.

For `O=C(C=Cc1ccccc1)N1CCC2(CC1)NC(Cc1ccccc1)C(=O)N2Cc1ccccc1` (stereo not drawn) [Example 223, 1,3-Dibenzyl-8-(3-phenylacryloyl)-1,4,8-triazaspiro[4,5]decan-2-one], on 5-HT transporter (Table III), the inhibition at 1 µM turned out to be 49%. Besides, the BTX inhibition in test [1] (Table III) turned out to be 62.

`CC(C)C1NC2(CCN(C(=O)C=Cc3ccccc3Cl)CC2)N(CCOc2ccccc2)C1=O` (stereo not drawn) [Example 225, 8-[3-(2-Chlorophenyl)acryloyl]-3-isopropyl-1-(2-phenoxyethyl)-1,4,8-triazaspiro[4,5]decan-2-one]: the inhibition at 1 µM on 5-HT transporter (Table III) turned out to be 32%. The same compound came in with a BTX inhibition in test [1] (Table III) of 55.

For the compound `CC(C)(C)CC(=O)N1CCC2(CC1)NC(Cc1ccccc1)C(=O)N2Cc1ccccc1` (stereo not drawn) [Example 230, 1,3-Dibenzyl-8-(3,3-dimethylbutyryl)-1,4,8-triazaspiro[4,5]decan-2-one], the inhibition at 1 µM on 5-HT transporter (Table III) is 72%. In test [1] (Table III), this compound had a BTX inhibition of 30.

`CC(C)C1NC2(CCN(C(=O)c3ccccc3C(=O)OCc3ccccc3)CC2)N(Cc2ccccc2)C1=O` (stereo not drawn) [Example 236, Benzyl 2-(1-benzyl-3-isopropyl-2-oxo-1,4,8-triazaspiro[4,5]decan-8-carbonyl)benzoate]: the inhibition at 1 µM on 5-HT transporter (Table III) was 48%. In test [1] (Table III), this compound gave a BTX inhibition of 50.

Regarding `CCC(C(=O)N1CCC2(CC1)NC(Cc1ccccc1)C(=O)N2Cc1ccccc1)c1ccccc1` (stereo not drawn) [Example 237, 1,3-Dibenzyl-8-(2-phenylbutyryl)-1,4,8-triazaspiro[4,5]decan-2-one], the inhibition at 1 µM at 5-HT transporter (Table III) was 63%. The BTX inhibition in test [1] (Table III) was 42.
